Columns and labels:
Type in all cases: in vivo
Monochoria vaginalis = test: Test for Herbicidal Effect in Flooding Treatment (#1), MONVA; details: flooding treatment at seeding, dose 2 kg/ha, visual observation on day 21
Procedure, shortened: (§1)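 Flooded soil in cups was seeded 24 h after flooding, then treated with compound in acetone diluted with Tween 80-containing water, dropped onto the water surface at 2 kg/ha. After growth in a glasshouse, growth inhibition was scored visually on day 21 on a 0 (<10%) to 5 (≥90% or complete withering) scale.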

[1] = tested on: Echinochloa crus-galli (L.) P. Beauv. var. formosensis Ohwi; test: Test for Herbicidal Effect in Flooding Treatment (#1), ECHDG; details: flooding treatment at seeding, dose 2 kg/ha, visual observation on day 21
Procedure, shortened: as §1

Scirpus juncoides = test: Test for Herbicidal Effect in Flooding Treatment (#1), SCIJU; details: flooding treatment at seeding, dose 2 kg/ha, visual observation on day 21
Procedure, shortened: as §1

[2] = tested on: Echinochloa crus-galli (L.) P. Beauv. var. formosensis Ohwi; test: Test for Herbicidal Effect in Flooding Treatment (#2), ECHDG at 2-2.5 leaf stage; details: for ECHDG (2-2.5L) #2 herbicidal effect (growth inhibition grade): flooding treatment at 2-2.5 leaf stage, dose 0.2 kg/ha, visual observation on day 21; for inhibition at 200 g/ha: Echinochloa crus-galli, 504 h, flooding treatment (#2), ECHDG at 2-2.5 leaf stage, dose of 0.2 kg/ha, day 21, visual observation, read-out: growth inhibition effect
Procedure, shortened: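 Flooded muddy soil was seeded with the weed, and at 2–2.5 leaf stage compound in acetone/Tween 80 water was dropped on the water surface at 0.2 kg/ha. Plants were kept in a glasshouse and scored visually on day 21 from 0 (<10% growth inhibition) to 5 (≥90% or complete withering).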

Cyperus microiria = test: Test for Herbicidal Effect in Flooding Treatment (#1), CYMIC; details: flooding treatment at seeding, dose 2 kg/ha, visual observation on day 21
Procedure, shortened: as §1

Compound	MONVA #1 herbicidal effect (growth inhibition grade) (Monochoria vaginalis)	ECHDG #1 herbicidal effect (growth inhibition grade) [1]	SCIJU #1 herbicidal effect (growth inhibition grade) (Scirpus juncoides)	ECHDG (2-2.5L) #2 herbicidal effect (growth inhibition grade) [2]	CYMIC #1 herbicidal effect (growth inhibition grade) (Cyperus microiria)	inhibition at 200 g/ha [2] [%]
COc1ccccc1CS(=O)(=O)c1ncc(Cl)s1 [Compound 1C-2]	5 (Growth inhibition effect is equal to or greater than 90%, or complete withering is achieved)	5 (Growth inhibition effect is equal to or greater than 90%, or complete withering is achieved)	5 (Growth inhibition effect is equal to or greater than 90%, or complete withering is achieved)	5 (Growth inhibition effect is equal to or greater than 90%, or complete withering is achieved)	5 (Growth inhibition effect is equal to or greater than 90%, or complete withering is achieved)	
COc1cccc(F)c1CS(=O)(=O)c1ncc(Cl)s1 [Compound 1C-5]	5 (Growth inhibition effect is equal to or greater than 90%, or complete withering is achieved)	5 (Growth inhibition effect is equal to or greater than 90%, or complete withering is achieved)	5 (Growth inhibition effect is equal to or greater than 90%, or complete withering is achieved)	5 (Growth inhibition effect is equal to or greater than 90%, or complete withering is achieved)	5 (Growth inhibition effect is equal to or greater than 90%, or complete withering is achieved)	
CCOc1ccccc1CS(=O)(=O)c1ncc(Cl)s1 [Compound 1C-8]	5 (Growth inhibition effect is equal to or greater than 90%, or complete withering is achieved)	5 (Growth inhibition effect is equal to or greater than 90%, or complete withering is achieved)	5 (Growth inhibition effect is equal to or greater than 90%, or complete withering is achieved)	5 (Growth inhibition effect is equal to or greater than 90%, or complete withering is achieved)	5 (Growth inhibition effect is equal to or greater than 90%, or complete withering is achieved)	
CCOc1c(C)cccc1CS(=O)(=O)c1ncc(Cl)s1 [Compound 1C-11]	5 (Growth inhibition effect is equal to or greater than 90%, or complete withering is achieved)	5 (Growth inhibition effect is equal to or greater than 90%, or complete withering is achieved)	5 (Growth inhibition effect is equal to or greater than 90%, or complete withering is achieved)	5 (Growth inhibition effect is equal to or greater than 90%, or complete withering is achieved)	5 (Growth inhibition effect is equal to or greater than 90%, or complete withering is achieved)	
CCOc1cccc(F)c1CS(=O)(=O)c1ncc(Cl)s1 [Compound 1C-19]	5 (Growth inhibition effect is equal to or greater than 90%, or complete withering is achieved)	5 (Growth inhibition effect is equal to or greater than 90%, or complete withering is achieved)	5 (Growth inhibition effect is equal to or greater than 90%, or complete withering is achieved)	5 (Growth inhibition effect is equal to or greater than 90%, or complete withering is achieved)	5 (Growth inhibition effect is equal to or greater than 90%, or complete withering is achieved)	≥ 90
CCOc1c(F)cc(F)cc1CS(=O)(=O)c1ncc(Cl)s1 [Compound 1C-21]	5 (Growth inhibition effect is equal to or greater than 90%, or complete withering is achieved)	5 (Growth inhibition effect is equal to or greater than 90%, or complete withering is achieved)	5 (Growth inhibition effect is equal to or greater than 90%, or complete withering is achieved)	5 (Growth inhibition effect is equal to or greater than 90%, or complete withering is achieved)	5 (Growth inhibition effect is equal to or greater than 90%, or complete withering is achieved)	≥ 90
COc1cccc(CS(=O)(=O)c2ncc(Cl)s2)c1OC [Compound 1C-124]		5 (Growth inhibition effect is equal to or greater than 90%, or complete withering is achieved)	5 (Growth inhibition effect is equal to or greater than 90%, or complete withering is achieved)	4 (Growth inhibition effect is equal to or greater than 70%, and less than 90%)	5 (Growth inhibition effect is equal to or greater than 90%, or complete withering is achieved)	
COc1ccc(CS(=O)(=O)c2ncc(Cl)s2)c(OC)c1 [Compound 1C-125]		5 (Growth inhibition effect is equal to or greater than 90%, or complete withering is achieved)	5 (Growth inhibition effect is equal to or greater than 90%, or complete withering is achieved)	5 (Growth inhibition effect is equal to or greater than 90%, or complete withering is achieved)	5 (Growth inhibition effect is equal to or greater than 90%, or complete withering is achieved)	
COc1ccc(OC)c(CS(=O)(=O)c2ncc(Cl)s2)c1 [Compound 1C-126]		5 (Growth inhibition effect is equal to or greater than 90%, or complete withering is achieved)	5 (Growth inhibition effect is equal to or greater than 90%, or complete withering is achieved)	3 (Growth inhibition effect equal to or greater than 50%, and less than 70%)	5 (Growth inhibition effect is equal to or greater than 90%, or complete withering is achieved)	
COc1cc(CS(=O)(=O)c2ncc(Cl)s2)cc(OC)c1OC [Compound 1C-128]		5 (Growth inhibition effect is equal to or greater than 90%, or complete withering is achieved)	4 (Growth inhibition effect is equal to or greater than 70%, and less than 90%)	1 (Growth inhibition effect is equal to or greater than 10%, and less than 30%)	5 (Growth inhibition effect is equal to or greater than 90%, or complete withering is achieved)	
CN(C)c1cc(Cl)cc(CS(=O)(=O)c2ncc(Cl)s2)c1Cl [Compound 1C-170]		5 (Growth inhibition effect is equal to or greater than 90%, or complete withering is achieved)	5 (Growth inhibition effect is equal to or greater than 90%, or complete withering is achieved)	5 (Growth inhibition effect is equal to or greater than 90%, or complete withering is achieved)	5 (Growth inhibition effect is equal to or greater than 90%, or complete withering is achieved)	
N#Cc1cccc(CS(=O)(=O)c2ncc(Cl)s2)c1 [Compound 1C-171]		5 (Growth inhibition effect is equal to or greater than 90%, or complete withering is achieved)	5 (Growth inhibition effect is equal to or greater than 90%, or complete withering is achieved)	3 (Growth inhibition effect equal to or greater than 50%, and less than 70%)	5 (Growth inhibition effect is equal to or greater than 90%, or complete withering is achieved)	
N#Cc1ccc(CS(=O)(=O)c2ncc(Cl)s2)cc1 [Compound 1C-172]		5 (Growth inhibition effect is equal to or greater than 90%, or complete withering is achieved)	5 (Growth inhibition effect is equal to or greater than 90%, or complete withering is achieved)	2 (Growth inhibition effect is equal to or greater than 30%, and less than 50%)	5 (Growth inhibition effect is equal to or greater than 90%, or complete withering is achieved)	
